From patent US20090099167A1, “Organic compounds” (Novartis Institutes for Biomedical Research, priority 2004, published 2009)

biological target: T1, human RET (Homo sapiens, UniProt P07949); test: RET kinase inhibition, GST-wtRET or GST-RET-Men2B, 33P incorporation into poly(Glu,Tyr); assay type: biochemical; conditions: Table 4
T1 construct: fused on or other part: N-terminal GST tag (pFB-GSTX3 vector)
Method: The inhibition of RET is measured as follows: The baculovirus donor vector pFB-GSTX3 is used to generate a recombinant baculovirus that expresses the amino acid region 658-1072 (Swiss prot No. Q9BTB0) of the intra-cytoplasmic kinase domain of human RET-Men2A which corresponds to the wild-type kinase domain of RET (wtRET) and RET-Men2B, which differs from the wtRET by the activating mutation in the activation loop M918T. The coding sequences for the cytoplasmic domain of wtRET and RET-Men2B are amplified by PCR from the plasmids pBABEpuro RET-Men2A and pBABEpuro RET-Men2B. The amplified DNA fragments and the pFB-GSTX3 vector are made compatible for ligation by digestion with SalI and KpnI. Ligation of these DNA fragments results in the baculovirus donor plasmid pFB-GX3-RET-Men2A and pFB-GX3-RET-Men2B, respectively. Production of virus: Transfer vectors containing the kinase domains are transfected into the DH10Bac cell line (GIBCO) and plated on selective agar plates. Colonies without insertion of the fusion sequence into the viral genome (carried by the bacteria) are blue. Single, white colonies are picked and viral DNA (bacmid) are isolated from the bacteria by standard plasmid purification procedures. Sf9 cells or Sf21 (American Type Culture Collection) cells are then transfected in 25 cm^2 flasks with the viral DNA using Cellfectin reagent. Determination of small scale protein expression in Sf9 cells: Virus-containing media is collected from the transfected cell culture and used for infection to increase its titer. Virus-containing media obtained after two rounds of infection is used for large-scale protein expression. For large-scale protein expression 100 cm^2 round tissue culture plates are seeded with 5×10^7 cells/plate and infected with 1 mL of virus-containing media (approximately 5 MOIs). After 3 days, the cells are scraped off the plate and centrifuged at 500 rpm for 5 minutes. Cell pellets from 10-20, 100 cm^2 plates, are re-suspended in 50 mL of ice-cold lysis buffer (25 mM tris-HCl, pH 7.5, 2 mM EDTA, 1% NP-40, 1 mM DTT, 1 mM P MSF). The cells are stirred on ice for 15 minutes and then centrifuged at 5,000 rpms for 20 minutes. Purification of GST-tagged proteins: The centrifuged cell lysate is loaded onto a 2 mL glutathione-sepharose column (Pharmacia) and is washed 3× with 10 mL of 25 mM tris-HCl, pH 7.5, 2 mM EDTA, 1 mM DTT, 200 mM NaCl. The GST-tagged proteins are then eluted by 10 applications (1 mL each) of 25 mM tris-HCl, pH 7.5, 10 mM reduced-glutathione, 100 mM NaCl, 1 mM DTT, 10% glycerol and stored at −70° C. Measure of enzyme activity: Tyrosine protein kinase assays with either purified GST-wtRET or GST-RET-Men2B protein are carried out in a final volume of 30 μL containing 15 ng of either GST-wtRET or GST-RET-Men2B protein, 20 mM tris-HCl, pH 7.5, 1 mM MnCl2, 10 mM MgCl2, 1 mM DTT, 3 μg/mL poly(Glu,Tyr) 4:1, 1% DMSO, 2.0 μM ATP (γ-[^33P]-ATP 0.1 μCi). The activity is assayed in the presence or absence of inhibitors, by measuring the incorporation of ^33P from [γ^33P] ATP into poly(Glu,Tyr) 4:1. The assay is carried out in 96-well plates at ambient temperature for 15 minutes under conditions described below and terminated by the addition of 20 μL of 125 mM EDTA. Subsequently, 40 μL of the reaction mixture are transferred onto Immobilon-PVDF membrane (Millipore) previously soaked for 5 minutes with methanol, rinsed with water, then soaked for 5 minutes with 0.5% H3PO4 and mounted on vacuum manifold with disconnected vacuum source. After spotting all samples, vacuum is connected and each well-rinsed with 200 μL 0.5% H3PO4. Membranes are removed and washed 4× on a shaker with 1.0% H3PO4, once with ethanol. Membranes are counted after drying at ambient temperature, mounting in Packard TopCount 96-well frame, and addition of 10 μL/well of Microscint™ (Packard). IC50 values are calculated by linear regression analysis of the percentage inhibition of each compound in duplicate, at 4 concentrations (usually 0.01, 0.1, 1 and 10 μM). […]

T1 sequence (P07949 1-1072 isoform P07949-2): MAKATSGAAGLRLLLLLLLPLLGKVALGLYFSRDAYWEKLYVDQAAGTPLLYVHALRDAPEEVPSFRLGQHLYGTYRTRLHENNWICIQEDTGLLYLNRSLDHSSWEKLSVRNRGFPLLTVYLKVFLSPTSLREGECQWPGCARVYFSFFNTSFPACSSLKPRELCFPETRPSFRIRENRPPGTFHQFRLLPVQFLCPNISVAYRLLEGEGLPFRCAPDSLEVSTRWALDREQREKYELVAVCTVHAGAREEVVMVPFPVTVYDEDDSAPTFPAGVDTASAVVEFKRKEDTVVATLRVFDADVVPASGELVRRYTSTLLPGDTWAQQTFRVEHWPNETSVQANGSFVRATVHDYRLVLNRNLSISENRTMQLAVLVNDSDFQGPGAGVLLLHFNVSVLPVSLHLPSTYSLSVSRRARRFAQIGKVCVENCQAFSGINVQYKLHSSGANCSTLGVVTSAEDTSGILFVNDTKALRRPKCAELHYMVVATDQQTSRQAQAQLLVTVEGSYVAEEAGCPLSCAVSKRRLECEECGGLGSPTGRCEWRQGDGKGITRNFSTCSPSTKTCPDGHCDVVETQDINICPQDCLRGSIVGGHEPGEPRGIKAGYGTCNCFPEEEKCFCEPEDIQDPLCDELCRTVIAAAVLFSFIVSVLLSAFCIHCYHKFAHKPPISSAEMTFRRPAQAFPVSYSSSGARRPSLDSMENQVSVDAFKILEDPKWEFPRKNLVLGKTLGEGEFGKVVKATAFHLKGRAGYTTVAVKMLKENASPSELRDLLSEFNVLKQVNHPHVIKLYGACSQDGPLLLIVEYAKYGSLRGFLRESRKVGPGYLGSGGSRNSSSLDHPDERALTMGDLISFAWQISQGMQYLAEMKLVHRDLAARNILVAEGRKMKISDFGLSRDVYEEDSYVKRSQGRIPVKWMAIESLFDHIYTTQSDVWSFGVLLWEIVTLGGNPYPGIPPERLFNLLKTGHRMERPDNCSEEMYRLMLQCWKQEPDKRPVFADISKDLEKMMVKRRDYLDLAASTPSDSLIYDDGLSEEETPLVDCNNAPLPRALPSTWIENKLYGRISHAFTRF

SMILES	IC50
CN1CCN(c2ccc(-c3cnn4c(N)c(-c5cccc(O)c5)cnc34)cc2)CC1 [Example 1, 3-{7-Amino-3-[4-(4-methyl-piperazin-1-yl)-phenyl]-pyrazolo[1,5-a]pyrimidin-6-yl}-phenol]	< 10 µM
CN1CCN(c2cccc(-c3cnn4c(N)c(-c5cccc(O)c5)cnc34)c2)CC1 [Example 29, 3-{7-Amino-3-[3-(4-methyl-piperazin-1-yl)-phenyl]-pyrazolo[1,5-a]pyrimidin-6-yl}-phenol]	< 10 µM
CN1CCN(c2cccc(-c3cnn4c(N)c(-c5ccc(O)cc5)cnc34)c2)CC1 [Example 39, 4-{7-Amino-3-[3-(4-methyl-piperazin-1-yl)-phenyl]-pyrazolo[1,5-a]pyrimidin-6-yl}-phenol]	< 10 µM
COc1ccccc1-c1cnn2c(N)c(-c3cccc(O)c3)cnc12 [Example 48, 3-[7-Amino-3-(2-methoxy-phenyl)-pyrazolo[1,5-a]pyrimidin-6-yl]-phenol]	< 10 µM
